Structures can show the parent of a compound that is named as a salt. Where two headings read alike, the source gives them in different places.
Assays:
[1] = target: T1, HCMV polymerase (Human cytomegalovirus, UniProt P08546); assay: biochemical
T1 construct: made in house; host or cells: recombinant baculovirus-infected SF-9 cells
Description: The HCMV polymerase assay is performed using a scintillation proximity assay (SPA) as described in several references, such as N. D. Cook, et al., Pharmaceutical Manufacturing International, pages 49-53 (1992); K. Takeuchi, Laboratory Practice, September issue (1992); U.S. Pat. No. 4,568,649 (1986); which are incorporated by reference herein. Reactions are performed in 96-well plates. The assay is conducted in 100 μl volume with 5.4 mM HEPE (pH 7.5), 11.7 mM KCl, 4.5 mM MgCl2, 0.36 mg/ml BSA, and 90 nM ^3H-dTTP. Assays are run with and without CHAPS, (3-[(3-cholamidopropyl)-dimethylammonio]-1-propane-sulfonate) at a final concentration of 2 mM. HCMV polymerase is diluted in enzyme dilution buffer containing 50% glycerol, 250 mM NaCl, 10 mM HEPES (pH 7.5), 100 μg/ml BSA, and 0.01% sodium azide. The HCMV polymerase, which is expressed in recombinant baculovirus-infected SF-9 cells and purified according to literature procedures, is added at 10% (or 10 μl) of the final reaction volume, i.e., 100 μl. Compounds are diluted in 50% DMSO and 10 μl are added to each well. Control wells contain an equivalent concentration of DMSO. Unless noted otherwise, reactions are initiated via the addition of 6 nM biotinylated poly(dA)-oligo(dT) template/primer to reaction mixtures containing the enzyme, substrate, and compounds of interest. Plates are incubated in a 25 C or 37 C H2O bath and terminated via the addition of 40 μl/reaction of 0.5 M EDTA (pH 8) per well. Reactions are terminated within the time-frame during which substrate incorporation is linear and varied depending upon the enzyme and conditions used, i.e., 30 min. for HCMV polymerase. Ten μl of streptavidin-SPA beads (20 mg/ml in PBS/10% glycerol) are added following termination of the reaction. Plates are incubated 10 min. at 37 ° C., then equilibrated to room temperature, and counted on a Packard Topcount. Linear regressions are performed and IC50's are calculated using computer software.
A modified version of the above HCMV polymerase assay is performed as described above, but with the following changes: Compounds are diluted in 100% DMSO until final dilution into assay buffer. In the previous assay, compounds are diluted in 50% DMSO. 4.5 mM dithiothreotol (DTT) is added to the polymerase buffer.

[2] = modified SPA assay: compounds diluted in 100% DMSO, 4.5 mM DTT in polymerase buffer, read-out: polymerase IC50 (μM) HCMV

T1 sequence (P08546 whole entry): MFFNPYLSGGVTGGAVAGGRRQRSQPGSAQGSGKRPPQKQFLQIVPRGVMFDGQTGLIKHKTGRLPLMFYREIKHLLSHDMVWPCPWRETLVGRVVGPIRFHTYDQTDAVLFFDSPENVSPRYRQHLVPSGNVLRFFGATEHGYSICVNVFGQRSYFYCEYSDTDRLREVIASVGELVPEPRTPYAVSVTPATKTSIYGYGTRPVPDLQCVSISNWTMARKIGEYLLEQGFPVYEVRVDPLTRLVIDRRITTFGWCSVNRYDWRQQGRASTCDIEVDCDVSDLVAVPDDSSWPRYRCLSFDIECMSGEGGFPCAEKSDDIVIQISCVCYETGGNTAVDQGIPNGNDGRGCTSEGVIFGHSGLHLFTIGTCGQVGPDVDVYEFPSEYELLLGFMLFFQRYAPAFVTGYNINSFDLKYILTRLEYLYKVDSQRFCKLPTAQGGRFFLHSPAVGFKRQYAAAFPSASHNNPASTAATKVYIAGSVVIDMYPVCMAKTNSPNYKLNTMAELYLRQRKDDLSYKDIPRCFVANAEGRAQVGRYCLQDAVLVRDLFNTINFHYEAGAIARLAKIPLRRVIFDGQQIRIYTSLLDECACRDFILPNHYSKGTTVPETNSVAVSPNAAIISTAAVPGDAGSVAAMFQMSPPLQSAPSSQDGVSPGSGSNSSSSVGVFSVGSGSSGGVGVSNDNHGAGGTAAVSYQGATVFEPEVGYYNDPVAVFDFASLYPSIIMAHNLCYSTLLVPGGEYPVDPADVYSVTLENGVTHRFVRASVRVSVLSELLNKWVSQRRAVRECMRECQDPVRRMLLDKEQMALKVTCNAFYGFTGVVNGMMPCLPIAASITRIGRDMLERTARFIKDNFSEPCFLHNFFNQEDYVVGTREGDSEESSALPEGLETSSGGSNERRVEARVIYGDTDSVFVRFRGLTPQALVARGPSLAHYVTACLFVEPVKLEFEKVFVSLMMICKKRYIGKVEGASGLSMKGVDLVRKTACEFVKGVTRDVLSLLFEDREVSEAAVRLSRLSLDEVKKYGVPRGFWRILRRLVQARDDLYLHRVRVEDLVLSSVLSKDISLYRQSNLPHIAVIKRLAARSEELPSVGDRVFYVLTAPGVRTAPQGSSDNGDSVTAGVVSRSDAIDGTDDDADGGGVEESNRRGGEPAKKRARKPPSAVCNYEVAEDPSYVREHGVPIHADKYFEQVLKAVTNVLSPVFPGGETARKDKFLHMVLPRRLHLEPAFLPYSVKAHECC

IC50 [1, 2] | melting point | SMILES | IC50 [1]
18.8 µM | 196 to 197 °C | CCn1cc(C(=O)NCc2ccc(Cl)cc2)c(=O)c2cc(Br)sc21 [Example 11, 2-Bromo-N-(4-chlorobenzyl)-7-ethyl-4-oxo-4,7-dihydrothieno[2,3-b]pyridine-5-carboxamide] | 
6.5 µM | 180 to 182 °C | CCn1cc(C(=O)NCc2ccc(Cl)cc2)c(=O)c2cc(C#CCOC(=O)CCC(=O)O)sc21 [Example 29, 4-{[3-(5-{[(4-Chlorobenzyl)amino]carbonyl}-7-ethyl-4-oxo-4,7-dihydrothieno[2,3-b]pyridin-2-yl)-2-propynyl]oxy}-4-oxobutanoic Acid] | 
4.2 µM | 190 to 196 °C | CC(C)n1cc(C(=O)NCc2ccc(Cl)cc2)c(=O)c2cc(C#CCO)sc21 [Example 27, N-(4-Chlorobenzyl)-2-(3-hydroxy-1-propynyl)-7-isopropyl-4-oxo-4,7-dihydrothieno[2,3-b]pyridine-5-carboxamide] | 
22.4 µM | 238 to 240 °C | COC(=O)c1cc2c(O)c(C(=O)NCc3ccc(Cl)cc3)cnc2s1 [Example 33, Methyl 5-{[(4-Chlorobenzyl)amino]carbonyl}-4-hydroxythieno[2,3-b]pyridine-2-carboxylate] | 
14.2 µM | 173 to 180 °C | CC(C)n1cc(C(=O)NCc2ccc(Cl)cc2)c(=O)c2cc(I)sc21 [Example 26, N-(4-Chlorobenzyl)-2-iodo-7-isopropyl-4-oxo-7-3dihydrothiedion[2,3-b]pyridine-5-carboxamide] | 
< 0.31 µM | 184 to 187 °C | CN(Cc1cc2c(=O)c(C(=O)NCc3ccc(Cl)cc3)cn(C)c2s1)CC(O)c1ccccc1 (stereo not drawn) [Example 40, N-(4-Chlorobenzyl)-2-(((2-hydroxy-2-phenylethyl)(methyl)-amino)methyl)-7-methyl-4-oxo-4,7-dihydrothieno[2,3-b]pyridine-5-carboxamide] | 
 | 212 to 214 °C (dec.) | CCN(CC)CCn1cc(C(=O)NCc2ccc(Cl)cc2)c(=O)c2cc(C#CCO)sc21 (as salt: hydrochloride) [Example 18, N-(4-Chlorobenzyl)-7-[2-(diethylamino)ethyl]-2-(3hydroxy-1-propynyl)4-oxo4,7-dihydrothieno[2,3-b]pyridine-5-carboxamide hydrochloride] | 
4.7 µM | 191 to 195 °C | CC(C)n1cc(C(=O)NCc2ccc(Cl)cc2)c(=O)c2cc(CN3CCOCC3)sc21 [Example 44, N-(4-Chlorobenzyl)-7-isopropyl-2-(4-morpholinylmethyl)-4-oxo-4,7-dihydrothieno[2,3-b]pyridine-5-carboxamide] | 
3.8 µM | 245 to 246 °C | Cn1cc(C(=O)NCc2ccc(Br)cc2)c(=O)c2cc(CN3CCOCC3)sc21 [Example 46, N-(4-Bromobenzyl)-7-methyl-2-(4-morpholinylmethyl)-4-oxo-4,7-dihydrothieno[2,3-b]pyridine-5-carboxamide] | 
1 µM | 206 to 208 °C | Cn1cc(C(=O)NCc2ccc(Cl)cc2)c(=O)c2cc(C#CCO)sc21 [Example 24, N-(4-Chlorobenzyl)-2-(3-hydroxy-1-propynyl)-7-methyl-4-oxo-4,7-dihydrothieno[2,3-b]pyridine-5-carboxamide] | 

The remaining lines, values behind:

SMILES | IC50 [1, 2] | melting point | IC50 [1]
O=C(NCc1ccc(Cl)cc1)c1cnc2sccc2c1O [Example 1, N-(4-Chlorobenzyl)-4-hydroxythieno[2,3-b]pyridine-5-carboxamide] | 28.9 µM | 238 to 240 °C | 
Cn1cc(C(=O)NCc2ccc(Cl)cc2)c(=O)c2cc(I)sc21 [Example 23, N-(4-Chlorobenzyl)-2-iodo-7-methyl-4-oxo-4,7-dihydrothieno[2,3-b]pyridine-5-carboxamide] | 2.9 µM | 236 to 237 °C | 
O=C(NCc1ccc(Cl)cc1)c1cnc2sc(CN3CCOCC3)cc2c1O [Example 41, N-(4-Chlorobenzyl)-4-hydroxy-2-(4-morpholinylmethyl)-thieno[2,3-b]pyridine-5-carboxamide] |  | 193 to 195 °C | 3.4 µM
O=C(NCc1ccc(Cl)cc1)c1cnc2sc(I)cc2c1O [Example 2, N-(4-Chlorobenzyl)-4-hydroxy-2-iodothieno[2,3-b]pyridine-5-carboxamide] | 6.3 µM | 231 to 232 °C (dec.) | 
CCn1cc(C(=O)NCc2ccc(Cl)cc2)c(=O)c2cc(I)sc21 [Example 13, N-(4-Chlorobenzyl)-7-ethyl-2-iodo-4-oxo-4,7-dihydrothieno[2,3-b]pyridine-5-carboxamide] | 9 µM | 214 to 218 °C | 
N#Cc1cc2c(O)c(C(=O)NCc3ccc(Cl)cc3)cnc2s1 [Example 9, N-(4-Chlorobenzyl)-2-cyano-4-hydroxythieno[2,3-b]pyridine-5-carboxamide] | 12.5 µM |  | 
Cn1cc(C(=O)NCc2ccc(Cl)cc2)c(=O)c2cc(CN3CCSCC3)sc21 [Example 38, N-(4-Chlorobenzyl)-7-methyl-4-oxo-2-(4-thiomorpholinyl-methyl)-4,7-dihydrothieno[2,3-b]pyridine-5-carboxamide] | 2.6 µM | 215 to 218 °C (dec.) | 
CC(C)n1cc(C(=O)NCc2ccc(Cl)cc2)c(=O)c2cc(CCCO)sc21 [Example 28, N-(4-Chlorobenzyl)-2-(3-hydroxypropyl)-7-isopropyl-4-oxo4,7-dihydrothieno[2,3-b]pyridine-5-carboxamide] | 2.4 µM | 84 to 92 °C | 
O=C(NCc1ccc(Cl)cc1)c1cn(Cc2cccnc2)c2sc(CN3CCOCC3)cc2c1=O [Example 54, N-(4-Chlorobenzyl)-2-(4-morpholinylmethyl)-4-oxo-7-(3-pyridinylmethyl)-4,7-dihydrothieno[2,3-b]pyridine-5-carboxamide] | 3.2 µM | 214 to 215 °C | 
CCCn1cc(C(=O)NCc2ccc(Cl)cc2)c(=O)c2cc(CN3CCOCC3)sc21 [Example 43, N-(4-Chlorobenzyl)-2-(4-morpholinylmethyl)-4-oxo-7-propyl-4,7dihydrothieno[2,3-b]pyridine-5-carboxamide] | 1.9 µM | 174 to 176 °C | 
CCn1cc(C(=O)NCc2ccc(Cl)cc2)c(=O)c2cc(C#CCOC(=O)c3cccc(CN4CCOCC4)c3)sc21 [Example 32, 3-(5-{[(4-Chlorobenzyl)amino]carbonyl}-7-ethyl-4-oxo-4,7-dihydrothieno[2,3-b]pyridin-2-yl)-2-propynyl 3-(4-Morpholinylmethyl)benzoate] | > 50 µM | 147 to 150 °C | 
Cn1cc(C(=O)NCc2ccc(Cl)cc2)c(=O)c2cc(C(=O)N3CCOCC3)sc21 [Example 48, N-(4-Chlorobenzyl)-7-methyl-2-(4-morpholinyl-carbonyl)-4 dothieno[2,3-b]pyridine-5-carboxamide] | 19 µM | 244 to 245 °C (dec.) | 
O=C(NCc1ccc(Cl)cc1)c1cn(CCO)c2sc(CCCO)cc2c1=O [Example 21, N-(4-Chlorobenzyl)-7-(2-hydroxyethyl)-2-(3-hydroxypropyl)4-oxo-4,7-dihydrothieno[2,3-b]pyridine-5-carboxamide] | < 0.78 µM | 174 to 178 °C | 
CCn1cc(C(=O)NCc2ccc(Cl)cc2)c(=O)c2cc(C#CCO)sc21 [Example 14, N-(4-Chlorobenzyl)-7-ethyl-2-(3-hydroxy-1-propynyl)-4-oxo4,7-dihydrothieno[2,3-b]pyridine-5-carboxamide] | 1.8 µM | 217 to 219 °C | 
CCn1cc(C(=O)NCc2ccc(Cl)cc2)c(=O)c2cc(C#CCOC(=O)C(N)C(C)C)sc21 (stereo not drawn) (as salt: hydrochloride) [Example 31, 3-(5-{[(4-Chlorobenzyl)amino]carbonyl}-7-ethyl-4-oxo-4,7-dihydrothieno[2,3-b]pyridin-2-yl)-2-propynyl 2-Amino-3-methylbutanoate Hydrochloride] |  | 171 to 172 °C | 
CCn1cc(C(=O)NCc2ccc(Cl)cc2)c(=O)c2cc(C#CCOC(=O)C(N)C(C)C)sc21 (stereo not drawn) [Example 31, 3-(5-{[(4-Chlorobenzyl)amino]carbonyl}-7-ethyl-4-oxo-4,7-dihydrothieno[2,3-b]pyridin-2-yl)-2-propynyl 2-Amino-3-methylbutanoate Hydrochloride] | 15.4 µM |  | 
